Experimental data as given in patent publication US20240287138A1, “CYCLIC PEPTIDES FOR INHIBITING TNF RECEPTOR 1 ACTIVITY” (Merck Sharp & Dohme LLC, priority 2023, published 2024).
Numbered stars: 1 amine (or outer) side, 2 acyl side, 3 side chain; on linkers, the order of the positions; unused ones are H or OH. Bridge positions count the residues as written; N and C are the ends. Square brackets hold non-standard residues; d marks the D form. Peptide text beside a SMILES is read from it. * marks the point of attachment. Trp(βS-Me,7-OMe) = COc1cccc2c([C@H](C)[C@H](N)C(=O)O)c[nH]c12; Trp(1-CH2COOH) = N[C@@H](Cc1cn(CC(=O)O)c2ccccc12)C(=O)O; Phe(4-SO2NH2) = N[C@@H](Cc1ccc(S(N)(=O)=O)cc1)C(=O)O; Ala(indazol-1-yl) = N[C@@H](Cn1ncc2ccccc21)C(=O)O; Trp(7-CN) = N#Cc1cccc2c(C[C@H](N)C(=O)O)c[nH]c12; Trp(7-Cl) = N[C@@H](Cc1c[nH]c2c(Cl)cccc12)C(=O)O; Phe(4-CONH2) = NC(=O)c1ccc(C[C@H](N)C(=O)O)cc1; Phe(4-COOH) = N[C@@H](Cc1ccc(C(=O)O)cc1)C(=O)O; Trp(7-aza) = N[C@@H](Cc1c[nH]c2ncccc12)C(=O)O; X48 = O=C([C@H](CC12CC(O)(C1)C2)N[*:1])[*:2]; X52 = C[C@@H](C(=O)[*:2])N(CCC(N)=O)[*:1]; Pip(5R-OH) = O=C(O)[C@@H]1CC[C@@H](O)CN1; X1 = O=C([C@@H]1CC[C@H](N[*:1])C1)[*:2]; AEF = NCCOc1ccc(C[C@H](N)C(=O)O)cc1; 4Pal = N[C@@H](Cc1ccncc1)C(=O)O; Ethyl(2-NMe3+) = C[N+](C)(C)CC*; NMeE = CN[C@@H](CCC(=O)O)C(=O)O; dHyp = O=C(O)[C@H]1C[C@H](O)CN1; αMeS = C[C@](N)(CO)C(=O)O; Carboxymethyl = O=C(O)C*; Nle = CCCC[C@H](N)C(=O)O; Sar = CNCC(=O)O

How the values were obtained:
[1] = target: T1, human soluble TNFR1 (sTNFR1) (Homo sapiens, UniProt P19438); experiment: Human sTNFR1-peptide displacement assay (LanthaScreen Eu TR-FRET binding assay)
T1 construct: made in house; host or cells: Sf21 (baculovirus)
T1 sequence (P19438 with tags, fused parts or gaps): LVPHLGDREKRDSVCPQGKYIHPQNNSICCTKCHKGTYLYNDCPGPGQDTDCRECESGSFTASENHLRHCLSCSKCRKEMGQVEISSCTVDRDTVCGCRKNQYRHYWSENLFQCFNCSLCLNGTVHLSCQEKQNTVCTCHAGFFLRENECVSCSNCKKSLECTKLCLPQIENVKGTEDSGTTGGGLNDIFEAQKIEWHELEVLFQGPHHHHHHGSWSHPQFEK
How it was run: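 Readout is the 665/615 nm TR-FRET ratio (Eu anti-His donor, streptavidin-Alexa647 acceptor), normalized to DMSO and saturating displacer, fit by Morrison-based five-parameter logistic for Kd^app. His-tagged sTNFR1 (1-211) prebound to 100 nM biotinylated peptide SEQ ID NO.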

[2] = target: T2, TNFα-induced NF-κB signal transduction pathway (TNFR1 signaling) in THP-1 cells (Homo sapiens, UniProt P19438); experiment: THP-1 Lucia NF-κB reporter cell assay, inhibition of TNFα-induced NF-κB signaling; format: cell-based; details: THP-1 NF-κB Lucia reporter cells, 10 ng/mL TNFα, 16-18 h, secreted luciferase; read-out: THP-1 IC50
T2 sequence (P19438 30-455): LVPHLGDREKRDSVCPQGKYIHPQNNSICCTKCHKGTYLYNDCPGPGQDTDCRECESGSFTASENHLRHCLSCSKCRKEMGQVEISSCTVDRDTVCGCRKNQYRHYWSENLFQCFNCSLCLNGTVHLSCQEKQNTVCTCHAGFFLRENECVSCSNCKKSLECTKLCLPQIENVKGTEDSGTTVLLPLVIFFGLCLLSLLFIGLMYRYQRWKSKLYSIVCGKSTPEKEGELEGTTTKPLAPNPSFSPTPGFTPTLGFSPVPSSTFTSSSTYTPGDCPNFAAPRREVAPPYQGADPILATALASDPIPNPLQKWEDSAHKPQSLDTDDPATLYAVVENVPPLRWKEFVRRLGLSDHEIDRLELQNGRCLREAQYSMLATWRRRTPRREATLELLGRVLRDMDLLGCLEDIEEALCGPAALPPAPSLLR
How it was run: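 Macrocyclic peptides were preincubated 1 h at 37 °C with THP-1 NF-κB-Lucia reporter cells (20,000 cells/well) in antibiotic-free RPMI 1640/10% FBS, then stimulated with 10 ng/mL human TNFα overnight (16-18 h). Secreted luciferase in supernatant was read by luminescence; IC50 from 4-parameter logistic fits.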

Structure (SMILES) | Kd [1] | IC50 [2]
CCCC[C@@H]1NC(=O)[C@@H]2CC[C@@H](C2)NC(=O)[C@H]([C@@H](C)c2c[nH]c3c(OC)cccc23)NC(=O)CN(C)C(=O)[C@H](Cc2ccc(OCC(=O)O)cc2)NC(=O)[C@H](Cc2ccc(S(N)(=O)=O)cc2)NC(=O)[C@](C)(CO)NC(=O)[C@H](Cc2c[nH]c3c(C#N)cccc23)NC(=O)[C@H](Cc2ccc(OCC(=O)O)cc2)NC(=O)[C@H](CC(N)=O)NC(=O)[C@H]2C[C@H](O)CN2C(=O)[C@H](Cc2c[nH]c3ccccc23)NC(=O)[C@@H]2CC[C@@H](O)CN2C(=O)[C@H](Cc2ccncc2)NC1=O [SEQ ID NO. 135] (cyclo([4Pal][Pip(5R-OH)]W[dHyp]NY(Carboxymethyl)[Trp(7-CN)][αMeS][Phe(4-SO2NH2)]Y(Carboxymethyl)[Sar][Trp(βS-Me,7-OMe)][X1][Nle])) | 0.07 nM | 0.4 nM
CCCC[C@@H]1NC(=O)[C@@H]2CC[C@@H](C2)NC(=O)[C@H]([C@@H](C)c2c[nH]c3c(OC)cccc23)NC(=O)CN(C)C(=O)[C@H](Cc2ccc(C(N)=O)cc2)NC(=O)[C@H](Cc2ccc(S(N)(=O)=O)cc2)NC(=O)[C@](C)(CO)NC(=O)[C@H](Cc2c[nH]c3c(C#N)cccc23)NC(=O)[C@H](Cc2ccc(C(=O)O)cc2)NC(=O)[C@H](CC(N)=O)NC(=O)[C@H]2C[C@H](OCC[N+](C)(C)C)CN2C(=O)[C@H](Cc2cn(CC(=O)O)c3ccccc23)NC(=O)[C@@H]2CC[C@@H](O)CN2C(=O)[C@H](Cc2ccncc2)NC1=O [SEQ ID NO. 136] (cyclo([4Pal][Pip(5R-OH)][Trp(1-CH2COOH)][dHyp](Ethyl(2-NMe3+))N[Phe(4-COOH)][Trp(7-CN)][αMeS][Phe(4-SO2NH2)][Phe(4-CONH2)][Sar][Trp(βS-Me,7-OMe)][X1][Nle])) | 0.07 nM | 0.4 nM
CCCC[C@@H]1NC(=O)[C@@H]2CC[C@@H](C2)NC(=O)[C@H]([C@@H](C)c2c[nH]c3c(OC)cccc23)NC(=O)CN(C)C(=O)[C@H](Cc2ccc(O)cc2)NC(=O)[C@H](Cc2ccc(C(N)=O)cc2)NC(=O)[C@](C)(CO)NC(=O)[C@H](Cc2c[nH]c3c(Cl)cccc23)NC(=O)[C@H](Cc2ccc(OCCN)cc2)NC(=O)[C@H](CC(N)=O)NC(=O)[C@H](CCC(=O)O)N(C)C(=O)[C@H](Cc2c[nH]c3ccccc23)NC(=O)[C@@H]2CC[C@@H](O)CN2C(=O)[C@H](Cc2ccncc2)NC1=O [SEQ ID NO. 145] (cyclo([4Pal][Pip(5R-OH)]W[NMeE]N[AEF][Trp(7-Cl)][αMeS][Phe(4-CONH2)]Y[Sar][Trp(βS-Me,7-OMe)][X1][Nle])) | 0.18 nM | 0.8 nM
CCCC[C@@H]1NC(=O)[C@@H]2CC[C@@H](C2)NC(=O)[C@H]([C@@H](C)c2c[nH]c3c(OC)cccc23)NC(=O)CN(C)C(=O)[C@H](Cc2ccc(C(N)=O)cc2)NC(=O)[C@H](Cc2ccc(C(N)=O)cc2)NC(=O)[C@](C)(CO)NC(=O)[C@H](Cc2c[nH]c3c(C#N)cccc23)NC(=O)[C@H](Cc2ccc(C(=O)O)cc2)NC(=O)[C@H](CC(N)=O)NC(=O)[C@H](C)N(CCC(N)=O)C(=O)[C@H](Cc2c[nH]c3ncccc23)NC(=O)[C@@H]2CC[C@@H](O)CN2C(=O)[C@H](Cc2ccncc2)NC1=O [SEQ ID NO. 147] (cyclo([4Pal][Pip(5R-OH)][Trp(7-aza)][X52]N[Phe(4-COOH)][Trp(7-CN)][αMeS][Phe(4-CONH2)][Phe(4-CONH2)][Sar][Trp(βS-Me,7-OMe)][X1][Nle])) | 0.21 nM | 1.4 nM
CCCC[C@@H]1NC(=O)CSC[C@@H](C(N)=O)NC(=O)[C@H]([C@@H](C)c2c[nH]c3c(OC)cccc23)NC(=O)CN(C)C(=O)[C@H](Cc2ccc(O)cc2)NC(=O)[C@H](Cc2ccc(C(=O)O)cc2)NC(=O)[C@](C)(CO)NC(=O)[C@H](Cc2c[nH]c3c(Cl)cccc23)NC(=O)[C@H](Cc2ccncc2)NC(=O)[C@H](CC(N)=O)NC(=O)[C@H](CCC(=O)O)N(C)C(=O)[C@H](Cn2ncc3ccccc32)NC(=O)[C@H]([C@@H](C)O)NC(=O)[C@H](CC23CC(O)(C2)C3)NC1=O [SEQ ID NO. 152] ({CH2CO}-[Nle][X48]T[Ala(indazol-1-yl)][NMeE]N[4Pal][Trp(7-Cl)][αMeS][Phe(4-COOH)]Y[Sar][Trp(βS-Me,7-OMe)]C-NH2; thioether N-14) | 1.19 nM | 5.3 nM
